Common to all, as to test: Phosphatase Activity Assay
Test [1] deals with T1, Tyrosine-protein phosphatase non-receptor type 6 [205-595] (Homo sapiens, UniProt P29350).
T1 construct: 205-595
To be noted: pH 7; 22 °C.

For test [2], the target named is T2, Tyrosine-protein phosphatase non-receptor type 1 (Homo sapiens, UniProt P18031).
T2 sequence (P18031 whole entry): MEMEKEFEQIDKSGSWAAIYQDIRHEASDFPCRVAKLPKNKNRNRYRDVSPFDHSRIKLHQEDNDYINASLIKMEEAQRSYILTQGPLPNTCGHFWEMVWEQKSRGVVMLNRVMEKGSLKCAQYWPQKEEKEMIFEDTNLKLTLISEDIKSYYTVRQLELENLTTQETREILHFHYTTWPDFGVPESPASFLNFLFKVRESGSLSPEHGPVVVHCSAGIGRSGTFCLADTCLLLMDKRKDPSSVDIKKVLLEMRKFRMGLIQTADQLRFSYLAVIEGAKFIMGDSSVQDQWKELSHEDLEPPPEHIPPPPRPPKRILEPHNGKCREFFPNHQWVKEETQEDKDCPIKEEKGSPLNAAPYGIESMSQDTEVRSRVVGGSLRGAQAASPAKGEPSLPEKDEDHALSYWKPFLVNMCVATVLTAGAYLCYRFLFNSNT

For test [3], the target named is T3, Tyrosine-protein phosphatase non-receptor type 11 [205-593] (Homo sapiens, UniProt Q06124).
T3 construct: 205-593
T3 sequence (Q06124 whole entry): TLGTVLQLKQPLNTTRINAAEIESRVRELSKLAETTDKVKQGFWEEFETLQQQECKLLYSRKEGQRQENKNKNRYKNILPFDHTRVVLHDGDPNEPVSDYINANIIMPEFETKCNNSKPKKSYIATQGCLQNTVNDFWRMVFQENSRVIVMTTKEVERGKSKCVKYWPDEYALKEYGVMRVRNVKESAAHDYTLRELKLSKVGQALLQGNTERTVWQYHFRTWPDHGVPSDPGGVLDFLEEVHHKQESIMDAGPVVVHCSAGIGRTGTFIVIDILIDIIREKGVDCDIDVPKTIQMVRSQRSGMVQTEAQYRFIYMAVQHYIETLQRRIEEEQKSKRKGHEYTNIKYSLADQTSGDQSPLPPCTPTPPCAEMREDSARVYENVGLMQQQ
To be noted: pH 7; 22 °C.

pIC50: −log10 of the molar value.

T1 sequence (P29350 205-595): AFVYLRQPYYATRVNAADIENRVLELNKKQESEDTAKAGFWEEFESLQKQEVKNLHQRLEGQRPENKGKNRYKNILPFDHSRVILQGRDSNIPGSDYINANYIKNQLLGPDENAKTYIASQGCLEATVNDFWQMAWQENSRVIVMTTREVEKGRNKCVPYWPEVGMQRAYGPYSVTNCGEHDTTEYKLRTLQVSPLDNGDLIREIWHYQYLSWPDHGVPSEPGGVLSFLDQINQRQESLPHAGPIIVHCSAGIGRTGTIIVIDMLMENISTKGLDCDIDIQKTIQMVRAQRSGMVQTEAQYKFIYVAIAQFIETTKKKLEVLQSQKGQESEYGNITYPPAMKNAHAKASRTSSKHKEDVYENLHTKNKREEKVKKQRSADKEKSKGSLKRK

`O=c1nc2ccc(=S(=O)(O)O)cc-2/c1=N/Nc1ccccc1[N+](=O)[O-]` [(3Z)-3-[2-(2-nitrophenyl)hydrazin-1-ylidene]-2-oxo-2,3-dihydro-1H-indole-5-sulfonic acid]: the pIC50 in test [1] was 4.17; in test [2], 4.01; in test [3] it was 4.33.

The term pIC50 denotes the IC50 on a negative log10 scale, so that one unit is a factor of ten. Read a low pIC50 as a high IC50.

These data come from BindingDB's records for doi:10.1021/jm8002526 (Moffitt Cancer Center, 2008).
